{
  "source": "patent US20250163122A1",
  "about": "“COMPOSITIONS AND METHODS FOR TREATING AIRWAY MUCUS DYSFUNCTION” (BOARD OF REGENTS, THE UNIVERSITY OF TEXAS SYSTEM, priority 2022, published 2025)",
  "key": {"neuronal SNAREs only": {"tested_on": "neuronal SNAREs only", "assay": "Single vesicle content mixing assay, neuronal SNAREs only (VAMP2 vesicles)", "type": "biochemical", "conditions": "10 μM peptide; raw count", "source_text": "(§1) For single vesicle content mixing assay, the lipid composition of the SV, SG, VAMP2, or VAMP8 vesicles was phosphatidylcholine (PC) (48%), phosphatidylethanolamine (PE) (20%), phosphatidylserine (PS) (12%), and cholesterol (20%); for both the neuronal and airway PM vesicles the lipid composition was Brain Total Lipid Extract supplemented 3.5 mol % PIP2, and 0.1 mol % biotinylated phosphatidylethanolamine (PE). The reconstitution method for neuronal PM and SV vesicles was described in detail previously (see Lai et al., 2017; Kyoung et al., 2011; and Lai et al., 2014). The same methods were used for airway PM, SG, VAMP2, and VAMP8 vesicles. […] A 3-5 fold excess of SNAP-25A or SNAP-23 (with respect to Stx1A or Stx3) and 3.5 mol % PIP2 were added to the protein-lipid mixture for neuronal or airway PM vesicles. […] For the preparation of SV, SG, VAMP2, or VAMP8 vesicles for single vesicle content mixing assay, 50 mM sulforhodamine B (Thermo Fisher Scientific) was added to the protein-lipid mixture. The vesicles subsequently formed during size exclusion chromatography using a Sepharose CL-4B column, packed under near constant pressure by gravity with a peristaltic pump (GE Healthcare) in a 5.5 ml column with a 5 ml bed volume that was equilibrated with buffer V (20 mM HEPES, pH 7.4, 90 mM NaCl) supplemented with 20 μM EGTA and 0.1% 2-mercaptoethanol. The eluent was subjected to dialysis into 21 of detergent-free buffer V supplemented with 20 μM EGTA, 0.1% 2-mercaptoethanol, 5 g of Bio-beads SM2 (Bio-Rad) and 0.8 g/L Chelex 100 resin (Bio-Rad). After 4 hours, the buffer was exchanged with 21 of fresh buffer V supplemented with 20 μM EGTA, 0.1% 2-mercaptoethanol and Bio-beads, and the dialysis continued for another 12 h (overnight). […] For ensemble lipid mixing assay, the reconstitution method is the same as that for the single vesicle content mixing assay, except that 50 mM sulforhodamine B was omitted for all the steps. Single vesicle content mixing experiments. All single vesicle fusion and single molecule experiments were performed on a prism-type total internal reflection fluorescence (TIRF) microscope using 532 nm (green) laser (CrystaLaser) excitation. Two observation channels were created by a 640 nm single-edge dichroic […]36, Shemrock): one channel was used for the fluorescence emission intensity of the content dyes and the other channel for that of the Cy5 dye that are part of the injected Ca^2+-solution. The two channels were recorded on two adjacent rectangular areas (45×90 m^2) of a charge-coupled device (CCD) camera (iXon+DV […], Andor Technology). The imaging data were recorded with the […] software developed by Taekjip Ha, Johns Hopkins University, Baltimore. Flow chambers were assembled by creating a “sandwich” consisting of a quartz slide and a glass coverslip that were both coated with polyethylene glycol (PEG) molecules consisting 0.1% (w/v) biotinylated-PEG except when stated otherwise, and using double-sided tape to create up to five flow-chambers. The single vesicle content mixing assay described in Lai et al. (2014) was used to monitor vesicle-vesicle association, Ca^2+-independent, and Ca^2+-triggered fusion. The surface of the quartz slides was passivated by coating the surface with polyethylene glycol (PEG) molecules which alleviated non-specific binding of vesicles. […]"}, "airway SNAREs only": {"biological_target": "T1, airway SNAREs only (Homo sapiens, UniProt O00161+Q13277+Q9BV40, C112S/C79S/C80S/C83S/C85S/C87S)", "T1 sequence (Q9BV40 1-100)": "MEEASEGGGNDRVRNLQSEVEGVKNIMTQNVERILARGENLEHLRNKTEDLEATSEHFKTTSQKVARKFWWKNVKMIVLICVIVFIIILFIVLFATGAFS", "T1 sequence (Q13277 1-289)": "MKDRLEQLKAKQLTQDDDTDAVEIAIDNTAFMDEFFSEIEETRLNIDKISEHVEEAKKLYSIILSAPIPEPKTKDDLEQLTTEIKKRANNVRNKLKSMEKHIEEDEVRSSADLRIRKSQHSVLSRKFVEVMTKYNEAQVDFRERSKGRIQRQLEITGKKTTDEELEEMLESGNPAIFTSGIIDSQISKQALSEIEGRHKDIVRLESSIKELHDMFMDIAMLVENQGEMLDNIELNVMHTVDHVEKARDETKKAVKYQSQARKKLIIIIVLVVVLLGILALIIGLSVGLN", "T1 sequence (O00161 1-211 C79S/C80S/C83S/C85S/C87S/C112S)": "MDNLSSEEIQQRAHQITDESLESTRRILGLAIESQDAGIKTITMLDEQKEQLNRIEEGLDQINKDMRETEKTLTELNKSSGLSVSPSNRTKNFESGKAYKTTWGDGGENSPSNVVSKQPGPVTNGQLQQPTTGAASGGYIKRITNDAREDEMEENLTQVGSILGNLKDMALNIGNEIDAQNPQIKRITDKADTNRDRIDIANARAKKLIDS", "assay": "Single vesicle content mixing assay, airway SNAREs only (VAMP8 vesicles)", "type": "biochemical", "conditions": "10 μM peptide; raw count", "source_text": "as §1"}},
  "note": "Where a SMILES comes first, the peptide text is derived from it. Bridges are numbered along the chain shown (N, C = ends). [ ]: non-standard residue; d: D form. S5 = C=CCCC[C@](C)(N)C(=O)O",
  "data": [
    {"molecule": "CC[C@H](C)[C@H](NC(=O)[C@]1(C)CCCC=CCCC[C@](C)(NC(=O)[C@H](CCC(=O)O)NC(=O)[C@H](CCC(=O)O)NC(C)=O)C(=O)N[C@@H](CCCCN)C(=O)N[C@@H](CC(=O)O)C(=O)N[C@@H](C)C(=O)N1)C(=O)N[C@@H](CCCNC(=N)N)C(=O)N[C@@]1(C)CCCC=CCCC[C@@](C)(C(=O)N[C@@H](CC(=O)O)C(=O)N[C@@H](CCC(=O)O)C(=O)N[C@@H](CCC(N)=O)C(=O)N[C@@H](CS)C(N)=O)NC(=O)[C@H](CCSC)NC(=O)[C@H](C(C)C)NC(=O)[C@H](CC(C)C)NC1=O", "note": "[SP9, Ac-EE(S5)KDA(S5)IR(S5)LVM(S5)DEQC-amide] (Ac-EE[S5]KDA[S5]IR[S5]LVM[S5]DEQC-NH2; staple 3-7, 10-14)", "values": [
      {"measurement": "Ca2+ independent fusion events", "setting": "neuronal SNAREs only", "value": 336},
      {"measurement": "Ca2+ independent fusion events", "setting": "airway SNAREs only", "value": 22}
    ]},
    {"molecule": "Ac-SKD(S5)GIR(S5)LV(S5)LDE(S5)GEQL-amide (Ac-SKD[S5]GIR[S5]LV[S5]LDE[S5]GEQL-NH2; staple 11-15, 4-8; SMILES CC[C@H](C)[C@@H]1NC(=O)CNC(=O)[C@@](C)(NC(=O)[C@H](CC(=O)O)NC(=O)[C@H](CCCCN)NC(=O)[C@H](CO)NC(C)=O)CCCC=CCCC[C@@](C)(C(=O)N[C@@H](CC(C)C)C(=O)N[C@H](C(=O)N[C@@]2(C)CCCC=CCCC[C@@](C)(C(=O)NCC(=O)N[C@@H](CCC(=O)O)C(=O)N[C@@H](CCC(N)=O)C(=O)N[C@@H](CC(C)C)C(N)=O)NC(=O)[C@H](CCC(=O)O)NC(=O)[C@H](CC(=O)O)NC(=O)[C@H](CC(C)C)NC2=O)C(C)C)NC(=O)[C@H](CCCNC(=N)N)NC1=O) [SP10]", "values": [
      {"measurement": "Ca2+ independent fusion events", "setting": "neuronal SNAREs only", "value": 341},
      {"measurement": "Ca2+ independent fusion events", "setting": "airway SNAREs only", "value": 18}
    ]},
    {"molecule": "Ac-SKD(S5)GIR(S5)LVMLDE(S5)GEQ(S5)DR-amide (Ac-SKD[S5]GIR[S5]LVMLDE[S5]GEQ[S5]DR-NH2; staple 15-19, 4-8; SMILES CC[C@H](C)[C@@H]1NC(=O)CNC(=O)[C@@](C)(NC(=O)[C@H](CC(=O)O)NC(=O)[C@H](CCCCN)NC(=O)[C@H](CO)NC(C)=O)CCCC=CCCC[C@@](C)(C(=O)N[C@@H](CC(C)C)C(=O)N[C@H](C(=O)N[C@@H](CCSC)C(=O)N[C@@H](CC(C)C)C(=O)N[C@@H](CC(=O)O)C(=O)N[C@@H](CCC(=O)O)C(=O)N[C@@]2(C)CCCC=CCCC[C@@](C)(C(=O)N[C@@H](CC(=O)O)C(=O)N[C@@H](CCCNC(=N)N)C(N)=O)NC(=O)[C@H](CCC(N)=O)NC(=O)[C@H](CCC(=O)O)NC(=O)CNC2=O)C(C)C)NC(=O)[C@H](CCCNC(=N)N)NC1=O) [SP1]", "values": [
      {"measurement": "Ca2+ independent fusion events", "setting": "neuronal SNAREs only", "value": 245},
      {"measurement": "Ca2+ independent fusion events", "setting": "airway SNAREs only", "value": 26}
    ]},
    {"molecule": "Ac-SKDA(S5)IRT(S5)VM(S5)DEQ(S5)EQL-amide (Ac-SKDA[S5]IRT[S5]VM[S5]DEQ[S5]EQL-NH2; staple 12-16, 5-9; SMILES CC[C@H](C)[C@@H]1NC(=O)[C@@](C)(NC(=O)[C@H](C)NC(=O)[C@H](CC(=O)O)NC(=O)[C@H](CCCCN)NC(=O)[C@H](CO)NC(C)=O)CCCC=CCCC[C@@](C)(C(=O)N[C@H](C(=O)N[C@@H](CCSC)C(=O)N[C@@]2(C)CCCC=CCCC[C@@](C)(C(=O)N[C@@H](CCC(=O)O)C(=O)N[C@@H](CCC(N)=O)C(=O)N[C@@H](CC(C)C)C(N)=O)NC(=O)[C@H](CCC(N)=O)NC(=O)[C@H](CCC(=O)O)NC(=O)[C@H](CC(=O)O)NC2=O)C(C)C)NC(=O)[C@H]([C@@H](C)O)NC(=O)[C@H](CCCNC(=N)N)NC1=O) [SP4]", "values": [
      {"measurement": "Ca2+ independent fusion events", "setting": "neuronal SNAREs only", "value": 356},
      {"measurement": "Ca2+ independent fusion events", "setting": "airway SNAREs only", "value": 16}
    ]},
    {"molecule": "EESKDAGIRTLVMLDEQGEQLD [Peptide P0, non-stapled SNAP-25A fragment used as a control, reference compound]", "values": [
      {"measurement": "Ca2+ independent fusion events", "setting": "neuronal SNAREs only", "value": 104},
      {"measurement": "Ca2+ independent fusion events", "setting": "airway SNAREs only", "value": 38}
    ]}
  ]
}
